Read-outs that look alike come from different tables or passages of the source.
Experiments:
[1] = molecular target: T1, large-conductance calcium-activated potassium (maxi-K) channels from bovine aortic smooth muscle (Bos taurus, UniProt Q28204); experiment: Patch clamp recordings of maxi-K channel currents in excised inside-out membrane patches; type: biochemical; details: for block of channel activity / effect on channel open probability: 1 μM
T1 construct: membrane patches excised from cultured bovine aortic smooth muscle cells; endogenous in cells; host or cells: cultured bovine aortic smooth muscle cells
Method: Pipettes were typically filled with solutions containing (mM): 150 KCl, 10 Hepes (4-(2-hydroxyethyl)-1-piperazine […]), 1 Mg, 0.01 Ca, and adjusted to pH 7.20 with 3.7 mM KOH. After forming a high resistance (>10^9 ohms) seal between the sarcolemmal membrane and the pipette, the pipette was withdrawn from the cell, forming an excised inside-out membrane patch. […] An AXOPATCH 1C amplifier (Axon Instruments, Foster City, Calif.) with a CV-4 headstage was used to control the voltage and to measure the currents flowing across the membrane patch. The input to the headstage was connected to the pipette solution with a Ag/AgCl wire, and the amplifier ground was connected to the bath solution with a Ag/AgCl wire covered with a tube filled with agar dissolved in 0.2 M KCl. Maxi-K channels were identified by their large single channel conductance (˜250 pS) and sensitivity of channel open probability to membrane potential and intracellular calcium concentration.
Data were stored on a RACAL STORE 4DS FM tape recorder (Racal Recorders, Vienna, Va.) or on digital video tape using a video casette recorder after digitizing the signal with VR-10 (Instrutech Corp., Belmont, N.Y.) PCM video encoder. The signal was also recorded on chart paper with a GOULD 2400S chart recorder (Gould Inc., Cleveland, Ohio). For quantitative analysis, the data was played into a DEC 11-73 (Digital Equipment Corp., Maynard, Mass.) after digitization with a DT2782-8D1A analogue to digital converter (Data Translation Inc., Marlboro, Mass.), or played into a Mac IIx or Quadra 700 computer (Apple Computers) after digitization with an ITC-16 interface (Instrutech Corp., Belmont, N.Y.).

[2] = molecular target: T2, [125I]ChTX receptor in bovine aortic sarcolemma membrane vesicles (Bos taurus, UniProt Q28204); experiment: [125I]ChTX binding assay with sarcolemma membrane vesicles; details: for inhibition at 10 µM: read-out: inhibition of [125I]ChTX binding
T2 construct: bovine aortic sarcolemma membrane vesicles; from tissue; host or cells: bovine aortic sarcolemma membrane vesicles
Method: The interaction of [^125I]ChTX with bovine aortic sarcolemma membrane vesicles was determined under conditions as described (Vazquez et al., 1989, J. Biol. Chem. 264, 20902-20909). Briefly, sarcolemma membrane vesicles were incubated in 12×75 polystyrene tubes with ca. 25 pM [^125I]ChTX (2200 Ci/mmol), in the absence or presence of test compound, in a media consisting of 20 mM NaCl, 20 mM Tris-HCl pH 7.4, 0.1% bovine serum albumin, 0.1% digitonin. Nonspecific binding was determined in the presence of 10 nM ChTX. Incubations were carried out at room temperature until ligand binding equilibrium is achieved at ca. 90 min. At the end of the incubation period, samples were diluted with 4 mL ice-cold 100 mM NaCl, 20 mM Hepes-Tris pH 7.4 and filtered through GF/C glass fiber filters that have been presoaked in 0.5% polyethylenimine. Filters were rinsed twice with 4 mL ice-cold quench solution. Radioactivity associated with filters was determined in a gamma counter. Specific binding data in the presence of each compound (difference between total binding and nonspecific binding) was assessed relative to an untreated control.

[3] = concentrations from 1 nM to 100 μM

T1 sequence (Q28204 whole entry): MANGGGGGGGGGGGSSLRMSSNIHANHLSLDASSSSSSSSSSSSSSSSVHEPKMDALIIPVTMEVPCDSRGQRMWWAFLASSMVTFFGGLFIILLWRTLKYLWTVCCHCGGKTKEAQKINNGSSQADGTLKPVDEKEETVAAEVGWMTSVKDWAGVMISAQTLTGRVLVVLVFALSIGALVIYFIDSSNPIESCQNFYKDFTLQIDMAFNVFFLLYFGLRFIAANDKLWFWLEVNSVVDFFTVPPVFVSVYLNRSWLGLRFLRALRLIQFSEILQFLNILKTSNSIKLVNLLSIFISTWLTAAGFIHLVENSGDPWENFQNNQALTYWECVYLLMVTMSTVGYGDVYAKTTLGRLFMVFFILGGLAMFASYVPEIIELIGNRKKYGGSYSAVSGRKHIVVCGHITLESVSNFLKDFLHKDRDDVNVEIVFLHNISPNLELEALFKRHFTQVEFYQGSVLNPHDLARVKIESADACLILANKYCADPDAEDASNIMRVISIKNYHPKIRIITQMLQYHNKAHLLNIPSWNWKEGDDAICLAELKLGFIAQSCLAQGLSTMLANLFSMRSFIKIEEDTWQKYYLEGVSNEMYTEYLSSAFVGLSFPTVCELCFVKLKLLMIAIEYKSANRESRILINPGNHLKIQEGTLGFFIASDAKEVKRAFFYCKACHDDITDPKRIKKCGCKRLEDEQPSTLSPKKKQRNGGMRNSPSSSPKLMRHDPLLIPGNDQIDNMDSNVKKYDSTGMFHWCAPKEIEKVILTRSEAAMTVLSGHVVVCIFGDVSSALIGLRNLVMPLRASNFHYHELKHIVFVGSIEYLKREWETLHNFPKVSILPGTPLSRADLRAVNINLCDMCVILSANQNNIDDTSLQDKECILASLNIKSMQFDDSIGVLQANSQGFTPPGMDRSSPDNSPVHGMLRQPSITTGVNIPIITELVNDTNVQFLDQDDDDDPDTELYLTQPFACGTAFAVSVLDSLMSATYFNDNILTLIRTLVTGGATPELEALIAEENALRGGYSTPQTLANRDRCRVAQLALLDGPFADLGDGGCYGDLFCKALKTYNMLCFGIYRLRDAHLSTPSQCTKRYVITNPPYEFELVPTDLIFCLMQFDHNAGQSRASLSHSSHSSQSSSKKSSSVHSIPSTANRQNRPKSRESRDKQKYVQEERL
T1 sequence (Q28067 whole entry partner): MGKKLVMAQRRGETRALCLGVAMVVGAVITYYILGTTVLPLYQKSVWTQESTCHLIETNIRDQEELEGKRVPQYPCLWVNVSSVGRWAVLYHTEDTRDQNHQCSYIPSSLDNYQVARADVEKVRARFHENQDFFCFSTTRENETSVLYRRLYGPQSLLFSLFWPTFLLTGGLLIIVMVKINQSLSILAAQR
T2 sequence (Q28204 whole entry): as the sequence (Q28204 whole entry) above
T2 sequence (Q28067 whole entry partner): as the sequence (Q28067 whole entry partner) above

CC(C)=CCOC(C)(C)[C@H]1O[C@H]2CC[C@]3(C)[C@@]4(C)c5[nH]c6ccc(CC=C(C)C)cc6c5C[C@@H]4CC[C@@]3(O)C23OC3[C@@H]1O (stereo partly drawn) [Compound B]
IC50 [1]: < 0.001 µM
Ki [1]: < 0.001 µM
block of maxi-K channels ([1]; 1 nM): nearly complete block

CC1(C)ON=C2C=C3[C@H](CC[C@@]4(C)[C@@]3(O)CC[C@H]3Cc5c([nH]c6ccccc56)[C@@]34C)O[C@@H]21 [Compound F, Paxizoline]
decrease in channel activity ([1]; 10 nM): ~50%
IC50 ([1]; excised inside-out patches, compound added to bath, read-out: [50% CHANNEL BLOCK]): ~0.01 µM
effect on [125I]ChTX binding ([2]; concentrations above 5 μM): concentration-dependent inhibition
effect on amount of toxin bound to its receptor ([2]; range of 50 nM to 2 μM): small increase
maximum level of inhibition (saturation) ([2]; tested from 1 nM to 100 μM): ca. 32 % control

CC(C)(O)[C@@H]1CC(O)C2(C(=O)O)C(CC[C@@]3(C)[C@H]2CC[C@H]2Cc4c([nH]c5ccccc45)[C@@]23C)O1 (stereo partly drawn) [Compound D, hydroxypaspalinic acid]
IC50 [1]: ~1 µM
strength as blocker of maxi-K channels compared with Compound C [1]: weaker
reduction in channel open probability ([1]; 10 nM): < 50%
block of channel activity / effect on channel open probability [1]: complete block was not observed
effect on [125I]ChTX binding [2, 3]: did not have any effect

COC(=O)C12C(O)C[C@@H](C(C)(C)O)OC1CC[C@@]1(C)[C@H]2CC[C@H]2Cc3c([nH]c4ccccc34)[C@@]21C (stereo partly drawn) [Compound E, methyl hydroxypaspalinate]
IC50 [1]: > 10 µM
strength as blocker of maxi-K channels compared with Compound C [1]: weaker
block of channel activity / effect on channel open probability [1]: no significant effect
block of channel activity ([1]; 10 μM, slowly increasing over 5-10 minutes): incomplete block
effect on [125I]ChTX binding [2, 3]: did not affect

CC(C)=CC1O[C@H]2C3OC34C(=CC[C@]3(C)[C@@]5(C)c6[nH]c7cccc(CC8OC8(C)C)c7c6C[C@@H]5CC[C@@]43O)O[C@@H]2C(C)(C)O1 (stereo partly drawn) [Compound G]
IC50 [1]: < 0.0001 µM
channels blocked ([1]; 0.1 nM): 82%
channels blocked ([1]; 1 nM): 98.6%
channel block ([1]; 10 nm): > 99%
inhibition at 10 µM [2]: 35%

CC(C)=CCc1cccc2[nH]c3c(c12)C[C@@H]1CC[C@@]2(O)C45OC4[C@@H]4OC(C=C(C)C)OC(C)(C)[C@H]4OC5=CC[C@]2(C)[C@@]31C (stereo partly drawn) [Compound C]
IC50 [1]: < 0.01 µM
block of maxi-K channels ([1]; 10 nM): rapid and complete block
reversal of block during washout ([1]; 10 nM, brief (~10 min) washout): not reversed
inhibition at 10 µM [2]: 29%

CC(C)=CCOC(C)(C)[C@@H]1CC2OC23[C@H](CC[C@@]2(C)[C@H]3CC[C@H]3Cc4c([nH]c5ccccc45)[C@@]32C)O1 (stereo partly drawn) [Compound A]
IC50 [1]: ~0.1 µM
strength as blocker of maxi-K channels compared with Compound C [1]: weaker
block of maxi-K channels ([1]; 10 nM): blocked a small fraction of channel activity
block of channel activity ([1]; 100 nM): approximately one half
block of channel activity / effect on channel open probability [1]: nearly all
inhibition at 10 µM [2]: 2%

Source: patent US6924306B2, “Method for treating ocular hypertension” (priority 2000, dated 2005)
